Results published in patent EP0550016A1, “Novel quinolone carboxylic acid derivatives and processes for preparing same” (KOREA RESEARCH INSTITUTE OF CHEMICAL TECHNOLOGY, priority 1991, dated 1993).
≈ marks a conversion by molar mass, not a printed value. Read-outs that look alike come from different tables or passages of the source.

How the values were obtained:
Assay in all cases: In vitro anti-bacterial activity test (MIC, two-fold dilution method) against the standard strains
Assay type in all cases: cell-based
[1] = test system: Streptococcus pyogenes 308 A; settings: Table 1 strain 1: Streptococcus pyogenes 308 A
[2] = test system: Streptococcus pyogenes 77 A; settings: Table 1 strain 2: Streptococcus pyogenes 77 A; read-out: MIC
[3] = test system: Streptococcus faecium MD 8b; settings: Enterococcus faecium, MD8B; Table 1 strain 3: Streptococcus faecium MD 8b; read-out: MIC
[4] = test system: Staphylococcus aureus SG 511; settings: SG511; Table 1 strain 4: Staphylococcus aureus SG 511
[5] = test system: Staphylococcus aureus 285; settings: Table 1 strain 5: Staphylococcus aureus 285; read-out: MIC
[6] = test system: Staphylococcus aureus 503; settings: Table 1 strain 6: Staphylococcus aureus 503; read-out: MIC
Escherichia coli DC 0 [7] = settings: DC0; Table 1 strain 7: Escherichia coli DC 0
Escherichia coli DC 0 [8] = settings: DC0; Table 1 strain 8: Escherichia coli DC 0
Escherichia coli DC 2 = settings: DC2
Escherichia coli OTEM = settings: Table 1 strain 10: Escherichia coli OTEM
Escherichia coli 1507 E = settings: Table 1 strain 11: Escherichia coli 1507 E
[9] = test system: Pseudomonas aeruginosa 9027; settings: Table 1 strain 12: Pseudomonas aeruginosa 9027
[10] = test system: Pseudomonas aeruginosa 1592 E; settings: Table 1 strain 13: Pseudomonas aeruginosa 1592 E
[11] = test system: Pseudomonas aeruginosa 1771; settings: Table 1 strain 14: Pseudomonas aeruginosa 1771
[12] = test system: Pseudomonas aeruginosa 1771 M; settings: Table 1 strain 15: Pseudomonas aeruginosa 1771 M
Salmonella typhimurium = settings: Salmonella enterica; Table 1 strain 16: Salmonella typhimurium
[13] = test system: Klebsiella aerogenes 1082 E; settings: Table 1 strain 17: Klebsiella aerogenes 1082 E
[14] = test system: Klebsiella aerogenes 1522 E; settings: Table 1 strain 18: Klebsiella aerogenes 1522 E
[15] = test system: Enterobacter cloacae P 99; settings: P99; Table 1 strain 19: Enterobacter cloacae P 99
[16] = test system: Enterobacter cloacae 1321 E; settings: Table 1 strain 20: Enterobacter cloacae 1321 E
[17] = Table 1 strain 9: Escherichia coli DC 2, read-out: MIC

| Compound | MIC [1] [µg/mL] | MIC [2] [µg/mL] | MIC [3] [µg/mL] | MIC [4] [µg/mL] | MIC [5] [µg/mL] | MIC [6] [µg/mL] | MIC (Escherichia coli DC 0 [7]) [µg/mL] | MIC (Escherichia coli DC 0 [8]) [µg/mL] | MIC (Escherichia coli DC 2; [17]) [µg/mL] | MIC (Escherichia coli OTEM) [µg/mL] | MIC (Escherichia coli 1507 E) [µg/mL] | MIC [9] [µg/mL] | MIC [10] [µg/mL] | MIC [11] [µg/mL] | MIC [12] [µg/mL] | MIC (Salmonella typhimurium) [µg/mL] | MIC [13] [µg/mL] | MIC [14] [µg/mL] | MIC [15] [µg/mL] | MIC [16] [µg/mL] | also measured |
| --- | --- | --- | --- | --- | --- | --- | --- | --- | --- | --- | --- | --- | --- | --- | --- | --- | --- | --- | --- | --- | --- |
| NCC1CC12CCN(c1c(F)cc3c(=O)c(C(=O)O)cn(C4CC4)c3c1F)C2 (stereo not shown) [Example 15] | 0.781 (≈ 2.01 µM) | 0.195 (≈ 0.501 µM) | 0.391 (≈ 1 µM) | 0.098 (≈ 0.252 µM) | 0.195 (≈ 0.501 µM) | 0.195 (≈ 0.501 µM) | 0.049 (≈ 0.126 µM) | 0.781 (≈ 2.01 µM) | 0.098 (≈ 0.252 µM) | 0.098 (≈ 0.252 µM) | 0.098 (≈ 0.252 µM) | 1.56 (≈ 4.01 µM) | 1.56 (≈ 4.01 µM) | 1.56 (≈ 4.01 µM) | 0.391 (≈ 1 µM) | 0.098 (≈ 0.252 µM) | 0.025 (≈ 0.0642 µM) | 0.195 (≈ 0.501 µM) | 0.195 (≈ 0.501 µM) | 0.049 (≈ 0.126 µM) |  |
| NC1CC12CCN(c1nc3c(cc1F)c(=O)c(C(=O)O)cn3C1CC1)C2 (stereo not shown) [Example 6, 7-(1-amino-5-azaspiro[2,4]heptane-5-yl)-1-cyclopropyl-6-fluoro-4-oxo-1,4-dihydro-1,8-naphthyridine-3-carboxylic acid] | 0.391 (≈ 1.09 µM) | 0.195 (≈ 0.544 µM) | 0.195 (≈ 0.544 µM) | 0.049 (≈ 0.137 µM) | 0.049 (≈ 0.137 µM) | 0.049 (≈ 0.137 µM) | < 0.002 | 0.391 (≈ 1.09 µM) | 0.098 (≈ 0.273 µM) | 0.025 (≈ 0.0698 µM) | 0.025 (≈ 0.0698 µM) | 1.56 (≈ 4.36 µM) | 1.56 (≈ 4.36 µM) | 1.56 (≈ 4.36 µM) | 0.195 (≈ 0.544 µM) | 0.025 (≈ 0.0698 µM) | 0.391 (≈ 1.09 µM) | 0.025 (≈ 0.0698 µM) | 0.007 (≈ 0.0195 µM) | < 0.002 |  |
| CC(O)C(=O)O.NC1CC12CCN(c1c(F)cc3c(=O)c(C(=O)O)cn(C4CC4)c3c1Cl)C2 (stereo not shown) [Example 4, 7-(1-amino-5-azaspiro[2,4]heptane-5-yl)-8-chloro-1-cyclopropyl-6-fluoro-1,4-dihydro-4-oxoquinoline-3-carboxylic acid lactate] | 0.098 | 0.049 | 0.098 | 0.025 | 0.025 | 0.013 | 0.007 | 0.098 |  | 0.025 | 0.025 | 0.781 | 0.781 | 0.781 | 0.195 | 0.025 | < 0.002 | 0.025 | 0.025 | 0.007 | MIC (Escherichia coli DC 2; Escherichia coli): 0.049 µg/mL |
| CNC1CC12CCN(c1c(F)cc3c(=O)c(C(=O)O)cn4c3c1OC[C@@H]4C)C2 (stereo partly drawn) [Example 10, 9-fluoro-3-(S)-methyl-10-(1-methylamino-5-azaspiro[2,4]heptane-5-yl)-7-oxo-2,3-dihydro-7H-pyrido-[1,2,3-de]-1,4-benzoxazine-6-carboxylic acid] | 0.391 (≈ 1.01 µM) | 0.195 (≈ 0.503 µM) | 0.195 (≈ 0.503 µM) | 0.049 (≈ 0.126 µM) | 0.049 (≈ 0.126 µM) | 0.049 (≈ 0.126 µM) | 0.025 (≈ 0.0645 µM) | 0.391 (≈ 1.01 µM) | 0.049 (≈ 0.126 µM) | 0.049 (≈ 0.126 µM) | 0.098 (≈ 0.253 µM) | 1.56 (≈ 4.03 µM) | 1.56 (≈ 4.03 µM) | 1.56 (≈ 4.03 µM) | 0.781 (≈ 2.02 µM) | 0.049 (≈ 0.126 µM) | 0.007 (≈ 0.0181 µM) | 0.098 (≈ 0.253 µM) | 0.049 (≈ 0.126 µM) | 0.025 (≈ 0.0645 µM) |  |
| C[C@H]1COc2c(N3CCC4(CC4C(=O)O)C3)c(F)cc3c(=O)c(C(=O)O)cn1c23 (stereo partly shown) [Example 14] | 3.12 (≈ 7.77 µM) | 1.56 (≈ 3.88 µM) | 1.56 (≈ 3.88 µM) | 0.098 (≈ 0.244 µM) | 0.098 (≈ 0.244 µM) | 0.098 (≈ 0.244 µM) | 0.195 (≈ 0.485 µM) | 6.25 (≈ 15.5 µM) | 0.391 (≈ 0.972 µM) | 0.391 (≈ 0.972 µM) | 0.781 (≈ 1.94 µM) | 12.5 (≈ 31.1 µM) | 6.25 (≈ 15.5 µM) | 12.5 (≈ 31.1 µM) | 1.56 (≈ 3.88 µM) | 0.781 (≈ 1.94 µM) | 0.098 (≈ 0.244 µM) | 1.56 (≈ 3.88 µM) | 0.391 (≈ 0.972 µM) | 0.195 (≈ 0.485 µM) |  |
